In brackets after ≈: the same amount, converted by molar mass. Several values for one entry are separate records, joined by “and”; a condition that tells them apart may be missing. Equal values may be shown once. Read-outs that look alike come from different tables or passages of the source.
Columns and labels:
[1] = Release of diacetyl and AITC vapours from PEG blends into jar headspace (automatic headspace sampling, GC); format: physicochemical; conditions: from 4:1 PEG400:PEG10K
Experimental: PEG400 and PEG10K were blended at 1:4, 2:3, 3:2 and 4:1 (w/w) ratios. All PEG blends (20±1 g) were heated to 90° C. in a 20 mL glass vial for 20 min to ensure the polymers were melted and thoroughly mixed with the aid of a magnetic stir bar. […] The vials were capped, kept in a 75° C. oven and continuously being stirred with the magnetic stir bar for 15 min. The molten mixtures were injected into a mould fabricated from glass (2 cm×1.5 cm×0.1 cm) and allowed to set. One face of the mould was lined with aluminum tape (adhesive side facing away from PEG), which acted as a baking material for the solidified PEG. Upon solidification, diacetyl/AITC impregnated PEG sheeting was formed.
With the aid of a controller (SRI Instruments Inc., Las Vegas, Nev., USA), the headspace air in the glass jar was sampled automatically by means of a vacuum pump and two stream selection valves (Model EMTCA-CE, VICI Valco Instruments Co. Inc., Houston, Texax, USA), and injected into a gas chromatograph equipped with flame ionization detector (GC 6890, Agilent Technologies Inc., Santa Clara, Calif., USA.). Both the detector and oven temperatures were set at 150° C. The flow rates of the carrier gas (N2), compressed air and hydrogen were 30 mL/min, 200 mL/min and 30 mL/min, respectively. Retention time and peak area were analyzed by using chromatographic software (Peak Simple 393-32 bit, SRI Instruments, Torrance, Calif., USA). After each sampling, an equal amount of dry air was injected back into the jar to maintain the interior pressure at one atmosphere.
Diacetyl or AITC release profiles were generated by plotting Mn versus time.
The release profiles of the antimicrobial compounds were fitted in a model which combines first order kinetics and zero order kinetics: C=Ce×(1−e^−kt)+αt (Eq. 3) where C is the compound concentration at time t; Ce is the equilibrium concentration for diffusion; k is the diffusion rate constant; α is the rate of zero order kinetics. Models are fitted to the data before reaching the equilibrium.

[2] = tested on: P. Fluorescens; test: Inhibitory effects of AITC, diacetyl and cinnamaldehyde vapour; format: cell-based, Pseudomonas fluorescens P33; conditions: 25° C.
Experimental: (§1) P. fluorescens was selected as a model spoilage bacteria, while mould and yeast were isolated from spoiled mung bean sprouts with bacteria excluded by cultivating in potato dextrose broth (PDB) (Sigma, Oakville, ON, Canada) at pH 5.6±0.2. Yeast and P. fluorescens stocks were cultivated in PDB and trypticase soy broth (TSB) (Bacto, BD, Sparks, USA), respectively, at 30° C. for 24 h and diluted with sterile saline solution (NaCl, 8.5 g/L water) to a concentration of 10^6 CFU/mL. An aliquot of 50 μL of the prepared yeast or bacteria suspension was spread on potato dextrose agar (PDA) (Difco, BD, Sparks, USA) or trypticase soy agar (TSA) (Bacto, BD, Sparks, USA), respectively, in 5 cm diameter petri dishes (Fisher Scientific, Ottawa, ON, Canada). Mycelium of mould was inoculated as one spot at the center of the PDA dishes. Two freshly inoculated petri dishes of same microorganism, with their lids removed, were placed in a one-liter glass jar. […] The growth of the microorganisms was monitored by the colony formation for 3 days.

[3] = tested on: Mould; test: as above; format: cell-based, mould isolated from mung bean sprouts; conditions: vapour in one-liter jar; 25° C.
Experimental: as §1

[4] = cited from earlier work
[5] = tested on: Yeast; test: Inhibitory effects of AITC, diacetyl and cinnamaldehyde vapour; format: cell-based, yeast isolated from mung bean sprouts
Experimental: as §1

[6] = Amount 0.1 mg in one-liter jar, 25° C.

## C=CCN=C=S [AITC, Allyl isothiocyanate]
[1]; 0 μL water, 5° C.
  Ce: 0.0212 mg/L
  k: 0.0149 h⁻¹
  α: 3.39e-06 h⁻¹
[1]; 0 μL water, 25° C.
  Ce: 0.0791 mg/L
  k: 0.016 h⁻¹ and 0.01604 h⁻¹
  α: 1.94e-05 h⁻¹
[1]; 5° C.
  maximum released after 42 h: 0.14 mg
[1]; 10 μL water, 5° C.
  Ce: 0.0245 mg/L
  k: 0.01509 h⁻¹
  α: 3.63e-06 h⁻¹
[1]; 10 μL water, 25° C.
  Ce: 0.1012 mg/L
  k: 0.01169 h⁻¹
  α: 1.76e-05 h⁻¹
[1]; 25° C.
  maximum released after 42 h: 0.47 mg
[1]; 25° C., 10 μL water
  maximum release within 42 h: 0.15 mg
[1]; 25° C., 100 μL water
  maximum release within 42 h: 0.18 mg
[1]; 25° C., 1000 μL water
  maximum release within 42 h: 0.48 mg
[1]; 25° C., dry condition
  maximum release within 42 h: 0.13 mg
[1]; 100 μL water, 5° C.
  Ce: 0.0353 mg/L
  k: 0.01022 h⁻¹
  α: 1.09e-05 h⁻¹
[1]; 100 μL water, 25° C.
  Ce: 0.1523 mg/L
  k: 0.00896 h⁻¹
  α: 1.25e-05 h⁻¹
[1]; 1000 μL water, 5° C.
  Ce: 0.0454 mg/L
  k: 0.00564 h⁻¹
  α: 3.75e-05 h⁻¹
[1]; 1000 μL water, 25° C.
  Ce: 0.1365 mg/L
  k: 0.009 h⁻¹ and 0.00945 h⁻¹
  time of reaching equilibrium of release: around 1300 min
  α: 0.00029 h⁻¹ and 0.000291 h⁻¹
[2]; Amount 0.1 mg in one-liter jar
  P. Fluorescens day1, visual colony number: ++ (15-50)
  P. Fluorescens day2, visual colony number: ++ (15-50)
[2]; Amount 0.5 mg in one-liter jar
  P. Fluorescens day1, visual colony number: + (less than 15)
  P. Fluorescens day2, visual colony number: + (less than 15)
[2]; vapour in one-liter jar
  effective concentration against P. fluorescens: 1 mg/L
[3]
  concentration that inhibited the growth of mould for three days: 0.1 mg/L
[4]; 5° C.
  Saturated vapor pressure: ~140 Pa
[4]; 20° C.
  vapor pressure (volatility): 0.49 kPa
[4]; 45° C.
  Saturated vapor pressure: ~1500 Pa
[5]; [6]
  Yeast day1, visual colony number: + (less than 15)
  Yeast day2, visual colony number: + (less than 15)
  Yeast day3, visual colony number: + (less than 15)
[5]; read-out: minimum inhibition concentration (MIC)
  MIC: 0.5 µg/mL (≈ 5.04 µM)
[5]; vapour in one-liter jar, 25° C.
  effective concentration against yeast: 0.5 mg/L

## Cc1ccc(C(C)C)c(O)c1 [thymol, Thymol]
[4]; 25° C.
  vapor pressure: 0.0054 kPa

— US11013249B2, “Compositions for controlled release of volatile compounds” (University of Guelph, priority 2016, dated 2021)
